# Assay results published in PubChem BioAssay (NCI).
#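 Cultured in 96-well plates, cells were exposed to test compound for 48 hours across five concentrations. GI50 is the concentration that inhibits growth by half. TGI marks complete inhibition of growth.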
# Key:
# Assay in all cases: inhibition of tumour cell growth, NCI panel, 48 h
# ACHN renal = system: ACHN renal
# NCI-H226 lung = system: NCI-H226 lung
# NCI/ADR-RES ovarian = system: NCI/ADR-RES ovarian
# HT29 colon = system: HT29 colon
# SNB-19 CNS = system: SNB-19 CNS
# EKVX NSCLC = system: EKVX NSCLC
# LOX IMVI melanoma = system: LOX IMVI melanoma
# SN12C renal = system: SN12C renal
# IGROV1 ovarian = system: IGROV1 ovarian
# RPMI-8226 leukemia = system: RPMI-8226 leukemia
# HCC-2998 colon = system: HCC-2998 colon
# BT-549 breast = system: BT-549 breast
# UACC-62 melanoma = system: UACC-62 melanoma
# MDA-MB-231 breast = system: MDA-MB-231 breast
# PC-3 prostate = system: PC-3 prostate
# NCI-H23 lung = system: NCI-H23 lung
# SF-295 CNS = system: SF-295 CNS
# HOP-62 NSCLC = system: HOP-62 NSCLC
# HL-60(TB) leukemia = system: HL-60(TB) leukemia
# UO-31 renal = system: UO-31 renal
# OVCAR-3 ovarian = system: OVCAR-3 ovarian
# SW-620 colon = system: SW-620 colon
# OVCAR-8 ovarian = system: OVCAR-8 ovarian
# UACC-257 melanoma = system: UACC-257 melanoma
# HS 578T breast = system: HS 578T breast
# HOP-92 NSCLC = system: HOP-92 NSCLC
# TK-10 renal = system: TK-10 renal
# SK-MEL-2 melanoma = system: SK-MEL-2 melanoma
# SF-539 CNS = system: SF-539 CNS
# MALME-3M melanoma = system: MALME-3M melanoma
# SK-MEL-5 melanoma = system: SK-MEL-5 melanoma
# COLO 205 colon = system: COLO 205 colon
# OVCAR-4 ovarian = system: OVCAR-4 ovarian
# DU-145 prostate = system: DU-145 prostate
# KM12 colon = system: KM12 colon
# A498 renal = system: A498 renal
# U251 CNS = system: U251 CNS
# M14 melanoma = system: M14 melanoma
# SK-OV-3 ovarian = system: SK-OV-3 ovarian
# MCF7 breast = system: MCF7 breast
# 786-0 renal = system: 786-0 renal
# CCRF-CEM leukemia = system: CCRF-CEM leukemia
# SF-268 CNS = system: SF-268 CNS
# T-47D breast = system: T-47D breast
# NCI-H522 lung = system: NCI-H522 lung
# OVCAR-5 ovarian = system: OVCAR-5 ovarian
# A549 NSCLC = system: A549 NSCLC
# CAKI-1 renal = system: CAKI-1 renal
# HCT-15 colon = system: HCT-15 colon
# K-562 leukemia = system: K-562 leukemia
# SK-MEL-28 melanoma = system: SK-MEL-28 melanoma
# MOLT-4 leukemia = system: MOLT-4 leukemia
# MDA-MB-435 = system: MDA-MB-435
# SR leukemia = system: SR leukemia
# NCI-H460 lung = system: NCI-H460 lung
# HCT-116 colon = system: HCT-116 colon
# RXF 393 renal = system: RXF 393 renal
smiles,measurement,setting,value
O=C(O)[C@@H](Cc1ccc2ccccc2c1)NC(=O)n1c2ccccc2c2ccccc21,GI50,ACHN renal,4.83 µM
same,TGI,ACHN renal,93.6 µM
same,GI50,NCI-H226 lung,2.1 µM
same,TGI,NCI-H226 lung,9.32 µM
same,GI50,NCI/ADR-RES ovarian,2.83 µM
same,TGI,NCI/ADR-RES ovarian,9.65 µM
same,GI50,HT29 colon,3.08 µM
same,TGI,HT29 colon,8.33 µM
same,GI50,SNB-19 CNS,3.57 µM
same,TGI,SNB-19 CNS,17 µM
same,GI50,EKVX NSCLC,5.56 µM
same,TGI,EKVX NSCLC,62.2 µM
same,GI50,LOX IMVI melanoma,3.63 µM
same,TGI,LOX IMVI melanoma,20 µM
same,GI50,SN12C renal,3.94 µM
same,TGI,SN12C renal,17.7 µM
same,GI50,IGROV1 ovarian,4.06 µM
same,TGI,IGROV1 ovarian,80.7 µM
same,GI50,RPMI-8226 leukemia,3.83 µM
same,TGI,RPMI-8226 leukemia,31.7 µM
same,GI50,HCC-2998 colon,3.91 µM
same,TGI,HCC-2998 colon,19.1 µM
same,GI50,BT-549 breast,2.85 µM
same,TGI,BT-549 breast,14.2 µM
same,GI50,UACC-62 melanoma,0.435 µM
same,TGI,UACC-62 melanoma,16.1 µM
same,GI50,MDA-MB-231 breast,3.65 µM
same,TGI,MDA-MB-231 breast,17.3 µM
same,GI50,PC-3 prostate,1.87 µM
same,TGI,PC-3 prostate,15.8 µM
same,GI50,NCI-H23 lung,3.72 µM
same,TGI,NCI-H23 lung,26.7 µM
same,GI50,SF-295 CNS,2.29 µM
same,TGI,SF-295 CNS,8.97 µM
same,GI50,HOP-62 NSCLC,3.21 µM
same,TGI,HOP-62 NSCLC,15.3 µM
same,GI50,HL-60(TB) leukemia,3.3 µM
same,TGI,HL-60(TB) leukemia,18.3 µM
same,GI50,UO-31 renal,5.18 µM
same,TGI,UO-31 renal,45.5 µM
same,GI50,OVCAR-3 ovarian,1.81 µM
same,TGI,OVCAR-3 ovarian,6.78 µM
same,GI50,SW-620 colon,4.04 µM
same,TGI,SW-620 colon,> 100 µM
same,GI50,OVCAR-8 ovarian,4.16 µM
same,TGI,OVCAR-8 ovarian,> 100 µM
same,GI50,UACC-257 melanoma,11.9 µM
same,TGI,UACC-257 melanoma,> 100 µM
same,GI50,HS 578T breast,2.24 µM
same,TGI,HS 578T breast,59.6 µM
same,GI50,HOP-92 NSCLC,1.33 µM
same,TGI,HOP-92 NSCLC,7.74 µM
same,GI50,TK-10 renal,14.9 µM
same,TGI,TK-10 renal,> 100 µM
same,GI50,SK-MEL-2 melanoma,4.19 µM
same,TGI,SK-MEL-2 melanoma,43.3 µM
same,GI50,SF-539 CNS,1.99 µM
same,TGI,SF-539 CNS,6.61 µM
same,GI50,MALME-3M melanoma,4.25 µM
same,TGI,MALME-3M melanoma,31.5 µM
same,GI50,SK-MEL-5 melanoma,2.55 µM
same,TGI,SK-MEL-5 melanoma,7.27 µM
same,GI50,COLO 205 colon,2.55 µM
same,TGI,COLO 205 colon,5.29 µM
same,GI50,OVCAR-4 ovarian,6.8 µM
same,TGI,OVCAR-4 ovarian,> 100 µM
same,GI50,DU-145 prostate,3.4 µM
same,TGI,DU-145 prostate,> 100 µM
same,GI50,KM12 colon,2.18 µM
same,TGI,KM12 colon,14.3 µM
same,GI50,A498 renal,2.23 µM
same,TGI,A498 renal,9.31 µM
same,GI50,U251 CNS,2.89 µM
same,TGI,U251 CNS,21.2 µM
same,GI50,M14 melanoma,3.25 µM
same,TGI,M14 melanoma,19.5 µM
same,GI50,SK-OV-3 ovarian,5.64 µM
same,TGI,SK-OV-3 ovarian,44.5 µM
same,GI50,MCF7 breast,2.42 µM
same,TGI,MCF7 breast,> 100 µM
same,GI50,786-0 renal,0.708 µM
same,TGI,786-0 renal,12.2 µM
same,GI50,CCRF-CEM leukemia,0.77 µM
same,TGI,CCRF-CEM leukemia,18 µM
same,GI50,SF-268 CNS,3.77 µM
same,TGI,SF-268 CNS,36.2 µM
same,GI50,T-47D breast,11.6 µM
same,TGI,T-47D breast,> 100 µM
same,GI50,NCI-H522 lung,0.356 µM
same,TGI,NCI-H522 lung,2.21 µM
same,GI50,OVCAR-5 ovarian,5.05 µM
same,TGI,OVCAR-5 ovarian,> 100 µM
same,GI50,A549 NSCLC,4.36 µM
same,TGI,A549 NSCLC,> 100 µM
same,GI50,CAKI-1 renal,3.54 µM
same,TGI,CAKI-1 renal,46.2 µM
same,GI50,HCT-15 colon,3.29 µM
same,TGI,HCT-15 colon,28.6 µM
same,GI50,K-562 leukemia,1.41 µM
same,TGI,K-562 leukemia,> 100 µM
same,GI50,SK-MEL-28 melanoma,11.4 µM
same,TGI,SK-MEL-28 melanoma,46.8 µM
same,GI50,MOLT-4 leukemia,4.12 µM
same,TGI,MOLT-4 leukemia,20.7 µM
same,GI50,MDA-MB-435,1.09 µM
same,TGI,MDA-MB-435,3.39 µM
same,GI50,SR leukemia,4.12 µM
same,TGI,SR leukemia,> 100 µM
same,GI50,NCI-H460 lung,3.47 µM
same,TGI,NCI-H460 lung,33.5 µM
same,GI50,HCT-116 colon,2.32 µM
same,TGI,HCT-116 colon,11.8 µM
same,GI50,RXF 393 renal,1.57 µM
same,TGI,RXF 393 renal,7.15 µM
